In test [1] the target is Thymidine phosphorylase (Escherichia coli K-12) (UniProt P07650). Briefly: Inhibition of Escherichia coli Thymidine Phosphorylase at a concentration of 1000 uM after 20 minutes.
Test [2] has the same target. Briefly: Inhibition of Escherichia coli Thymidine Phosphorylase at a concentration of 1000 uM after 40 minutes.
The target is the same in test [3]. The test is described as follows: Inhibition of Escherichia coli Thymidine Phosphorylase at a concentration of 1000 uM after 60 minutes.
In test [4] the target is Thymidine phosphorylase (Escherichia coli) (UniProt P07650). Briefly: Inhibition of Escherichia coli TPase at a concentration of 500 uM after 20 minutes.
Test [5] has the same target. Briefly: Inhibition of Escherichia coli TPase at a concentration of 500 uM after 40 minutes.
Test [6] has the same target. The test is described as follows: Inhibition of Escherichia coli TPase at a concentration of 500 uM after 60 minutes.

SMILES strings stand for the structures.

Chain of Thymidine phosphorylase (Escherichia coli K-12) (P07650 whole entry, looked up): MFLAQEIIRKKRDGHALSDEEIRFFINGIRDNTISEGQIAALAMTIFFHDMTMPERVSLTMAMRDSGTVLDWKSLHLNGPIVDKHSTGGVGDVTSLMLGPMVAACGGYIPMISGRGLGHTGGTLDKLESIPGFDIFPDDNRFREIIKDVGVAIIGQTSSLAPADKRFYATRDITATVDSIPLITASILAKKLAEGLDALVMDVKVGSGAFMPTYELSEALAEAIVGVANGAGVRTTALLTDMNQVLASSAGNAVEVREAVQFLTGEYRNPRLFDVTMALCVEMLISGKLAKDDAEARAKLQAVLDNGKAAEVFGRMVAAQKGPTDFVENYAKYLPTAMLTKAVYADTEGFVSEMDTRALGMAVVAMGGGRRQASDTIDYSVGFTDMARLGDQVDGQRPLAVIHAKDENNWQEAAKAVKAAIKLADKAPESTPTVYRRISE
Chain of Thymidine phosphorylase (Escherichia coli) (P07650 whole entry, looked up): as above

Regarding `Cc1cn(CC(O)C(O)COCP(=O)(OC(C)C)OC(C)C)c(=O)[nH]c1=O` (stereo not given), the inhibition in test [1], in test [2] and in test [3] was 0% throughout.
As to `Cc1cn(CC(O)C(O)COCOCP(=O)(O)O)c(=O)[nH]c1=O` (stereo not given), the inhibition in test [1], in test [2] and in test [3] was 0% throughout.
With `Cc1cn(CCCCOCOCP(=O)(O)O)c(=O)[nH]c1=O`, the inhibition in test [1], in test [2] and in test [3] was 0% in each case.
On to `CCOP(=O)(CCCCCCCCn1c(N)c(Br)c(=O)[nH]c1=O)OCC`, for which the inhibition in test [1] worked out at 21%; in test [2], 16%; in test [3], 10%.
The like results for `CCOP(=O)(CCCCCCCCn1cc(C)c(=O)[nH]c1=O)OCC` were, in that order, 0%, 0% and 0%.
The like results for `Cc1cn(CCCCCCCCP(=O)(O)O)c(=O)[nH]c1=O` were, in that order, 75%, 68% and 61%.
Take `CCOP(=O)(CCCCCCCCn1c(=O)[nH]c(=O)c2cc[nH]c21)OCC`: the inhibition in test [4] came out at 43%; in test [5], 37%; in test [6] it was 27%.
In the case of `Cc1cn(CCCCCCCCCP(=O)(O)O)c(=O)[nH]c1=O`, the inhibition came to 81% in test [1], 75% in test [2] and 70% in test [3].
The like results for `Cc1cn(C/C=C\COCOCP(=O)(OC(C)C)OC(C)C)c(=O)[nH]c1=O` were, in that order, 0%, 0% and 0%.
`Cc1cn(CCCCOCP(=O)(O)O)c(=O)[nH]c1=O`: the figures for the inhibition in test [1], in test [2] and in test [3] were 27%, 17% and 12%, respectively.
Consider `Cc1cn(CCCCCCCP(=O)(O)O)c(=O)[nH]c1=O`, for which the figures for the inhibition in test [1], in test [2] and in test [3] were 73%, 63% and 55%, respectively.
For `O=c1[nH]c(=O)n(CCCCCCCCP(=O)(O)O)c2[nH]ccc12` the same measures were 97%, 96% and 94%.
The like results for `Cc1cn(CCCCOCP(=O)(OC(C)C)OC(C)C)c(=O)[nH]c1=O` were, in that order, 0%, 0% and 0%.
The like results for `Cc1cn(COC/C=C\COCP(=O)(O)O)c(=O)[nH]c1=O` were, in that order, 0%, 0% and 0%.
With `Nc1c(Br)c(=O)[nH]c(=O)n1CCCCCCCCP(=O)(O)O`, the inhibition in test [1] came out at 94%; in test [2], 91%; in test [3], 89%.
Take `CCOP(=O)(CCCCCCCn1cc(C)c(=O)[nH]c1=O)OCC`: the inhibition in test [1], in test [2] and in test [3] was 0% each time.
Consider `Cc1cn(CCCCOCOCP(=O)(OC(C)C)OC(C)C)c(=O)[nH]c1=O`, for which the inhibition in test [1], in test [2] and in test [3] was 0% in each case.
For `Cc1cn(CCCCCCCCP(=O)(OC(C)C)OC(C)C)c(=O)[nH]c1=O`, the inhibition in test [1], in test [2] and in test [3] was 0% each time.
With `Cc1cn(C/C=C\COCP(=O)(O)O)c(=O)[nH]c1=O`, the inhibition in test [1], in test [2] and in test [3] was 0% in each case.
Consider `Cc1cn(CCCCCCP(=O)(O)O)c(=O)[nH]c1=O`, for which the inhibition is 11% in test [1], 5% in test [2] and 2% in test [3].
Turning to `Cc1cn(C/C=C\COCOCP(=O)(O)O)c(=O)[nH]c1=O`, the inhibition in test [1] stood at 34%; in test [2] it was 22%; in test [3], 17%.
The like results for `Cc1cn(C/C=C\COCP(=O)(OC(C)C)OC(C)C)c(=O)[nH]c1=O` were, in that order, 0%, 0% and 0%.
With `CCOP(=O)(CCCCCCCCCn1cc(C)c(=O)[nH]c1=O)OCC`, the inhibition turned out to be 4% in test [1], 3% in test [2] and 2% in test [3].
For `Cc1cn(CC(O)C(O)COCP(=O)(O)O)c(=O)[nH]c1=O` (stereo not given) the same measures were 0%, 0% and 0%.
The like results for `Cc1cn(CC(O)C(O)COCOCP(=O)(OC(C)C)OC(C)C)c(=O)[nH]c1=O` (stereo not given) were, in that order, 0%, 0% and 0%.

One may read the inhibition as how much of the control response was suppressed. Read a low inhibition as a weak effect.

The values above are taken from ChEMBL document CHEMBL1132969, “Design, synthesis, and enzymatic evaluation of multisubstrate analogue inhibitors of Escherichia coli thymidine phosphorylase” (J Med Chem, 2000).
